Source: patent US10285794B2, “Hernia repair device and methods” (priority 2016, dated 2019)

What was measured:
[1] = rabbit study with cutaneous injection (toxicity, irritation, skin sensitization); assay type: in vivo
[2] = tested on: peri-implant capsular scarring; assay: silicone discs impregnated with salinomycin placed submuscular in mice, Masson's trichrome staining; assay type: in vivo, mouse
Text: Salinomycin can also be used effectively as a small molecule coating on silicone or temporary dressings such as PermeaDerm. […] In this study, silicone discs were impregnated with salinomycin or a control solvent and placed submuscular in mice. Surrounding tissue was harvested at 16 weeks and tissue sections were stained with Masson's trichrome.

Gram-negative bacteria = details: cited from earlier work
[3] = tested on: human mesenchymal stem cells, human fibroblasts and fibroblasts from mouse, cat and pig; assay: cell culture studies of myofibroblast formation and function; assay type: cell-based
[4] = tested on: myofibroblast (scar cell) formation; assay: TGFβ-induced myofibroblast formation (expression of αSMA, calponin and collagen); assay type: cell-based; details: hallmarks of myofibroblasts
Text: Therapeutic options to treat excessive scarring are limited and most are not proven to be effective. Salinomycin is a novel small molecule that blocks myofibroblast (scar cell) formation.

[5] = tested on: myofibroblast function (cellular contraction); assay type: cell-based
Text: These novel studies highlight the potential of salinomycin to serve as the basis for new anti-scarring agents.

[6] = tested on: Gram-positive bacteria, including MRSA, MRSE and Mycobacterium tuberculosis; details: cited from earlier work
fungi such as Candida = details: cited from earlier work

CC[C@@H](C(=O)[C@@H](C)[C@@H](O)[C@H](C)[C@@H]1O[C@@H]([C@@H](CC)C(=O)O)CC[C@@H]1C)[C@H]1O[C@]2(C=C[C@@H](O)[C@]3(CC[C@@](C)([C@H]4CC[C@](O)(CC)[C@H](C)O4)O3)O2)[C@H](C)C[C@@H]1C [Salinomycin]
irritation ([1]; in vivo): non-irritating | reactivity (signs of erythema or edema) ([1]; in vivo): non-reactive | skin sensitization ([1]; in vivo): do not cause skin sensitization | toxicity ([1]; low doses required for anti-scarring activity, cutaneous injection): non toxic | peri-implant capsular scarring ([2]; silicone implants impregnated with 1 micromolar coating solution, mouse): dramatically reduce | scar formation (capsule thickness) ([2]; submuscular silicone discs in mice, tissue harvested at 16 weeks, Masson's trichrome): significantly reduced scar formation | activity against Gram-negative bacteria (Gram-negative bacteria): inactive | doses that block myofibroblast formation and function [3]: 50 to 200 nM | ability of TGFβ to induce expression of αSMA, calponin and collagen [4]: potently blocks | myofibroblast function (cellular contraction) [5]: effectively blocks | viability [5]: without affecting viability | antimicrobial activity against Gram-positive bacteria [6]: high antimicrobial activity | activity against fungi (fungi such as Candida): inactive
